Values joined by “and” are separate entries in the source; they are usually repeats but may differ in a detail not shown here. Equal entries are not always repeated.
Key:
[1] = tested on: DSS-induced colitis C56BL/6J mice; assay: DSS-induced colitis mouse model (body weight, colon length, survival, histology); type: in vivo; details: for Difference in weight loss between control and treated group / Survival rate 7 days after colitis was induced: 1.5% DSS; for Survival rate 7 days after colitis was induced: C56BL/6J mice (control 50%)
Text: The dextran sodium sulphate-induced (DSS)-induced colitis model is well known in the art as a reproducible chemical induction of intestinal inflammation animal model. See, e.g., Eichele et al., World J Gastroenterol, 2017, 23(33):6016-6029; Randhawa et al., Korean J. Physiol. Pharmacol. (2014) 18:279-288; Jurjus et al., J. Pharmacol. Toxicol., Methods, 2004, 50:81-92; Gaudio et al., Dig. Dis. Sci., 1999, 44:1458-1475. The DSS-induced colitis model morphologically and symptomatically resembles epithelial damage seen in human IBD, and thus has become the most extensively employed experimental model of intestinal inflammation. Okayasu et al., Gastroenterology, 1990, 98:694-702; Kawada et al., World J. Gastroenterol. 2007, 13:5581-5593. The DSS-induced colitis model is most similar to ulcerative colitis in humans, but also has many similarities to Crohn's disease.
DSS is a water soluble, negatively charged sulfated polysaccharide with a highly variable molecular weight ranging from 5 to 1400 kDa. Murine colitis results from administration of about 1% to 3% DSS to the drinking water of a mouse strain susceptible to DSS-induced colitis. Without being bound by theory, the sulfated polysaccharide may not directly induce intestinal inflammation, but may instead act as a direct chemical toxin to colonic epithelium resulting in epithelial cell injury. It is thought that DSS disrupts the intestinal epithelial monolayer lining, leading to the entry of luminal bacteria and associated antigens into the mucosa and allowing the dissemination of proinflammatory intestinal contents into underlying tissue. […] Perse et al., J. Biomed. Biotechnol., 2012:718617.
(§1) The C56BL/6J mouse is a strain susceptible to DSS-induced colitis. To evaluate the efficacy and dosage of Compound B in treatment of DSS-induced colitis, inflammation was induced in 30 9-week old C56BL/6J mice by adding 1.5% DSS to the drinking water for 7 days. The mice were fed a standard chow diet that consisted of 30 weight percent wheat. The mice were divided into three groups of 10, and for each day of DSS administration each group was administered via oral gavage either (1) 100 μL corn oil per day (Control), (2) 126 mg/kg Compound B (dissolved in 100 μL corn oil) per day (“Compound B-Low” or “Compound B-L”), or (3) 252 mg/kg Compound B (dissolved in 100 μL corn oil) per day (“Compound B-High” or “Compound B-H”). Following the 7-day period of DSS induction, mice were sacrificed and their intestinal tissue was used for histopathological and gene expression analysis.
To assess the efficacy of Compound B in the treatment of DSS-induced colitis in mice, the body weight of mice was monitored. Weight loss is an indicator of colitis severity.
To assess the efficacy of Compound B in the treatment of DSS-induced colitis in mice, colon length of test mice was measured. Colon length correlates inversely with inflammation.
Histopathological analysis was performed on sections of formalin-fixed paraffin embedded tissue after hematoxylin and eosin (H&E) staining. Colonic samples were analyzed by histopathology for assignment of scores for colitis activity as described in Neurath et al., J. Exp. Med., 2002, 195:1129-1143. Briefly, the degrees of inflammation and epithelial and mucosal injury on microscopic cross-sections of the colon were graded semi-quantitatively from 0 to 4. For inflammation, a score of 0=no evidence for inflammation; 1=low level of inflammation with scattered infiltrating mononuclear cells (1-2 foci only); 2=moderate inflammation with multiple foci; 3=high level of inflammation with increased vascular density and marked wall thickening; and 4=maximal severity of inflammation with transmural leukocyte infiltration and loss of goblet cells. For injury, a score of 0=no epithelial injury; 1=occasional epithelial lesion; 2=1-2 foci of ulcerations; and 3=extensive ulcerations. […]

[2] = tested on: IL6, IL1b, S100A8, TNFα, Reg3g, IL17a mRNA; assay: Colonic mRNA levels of cytokines and biomarkers by real-time PCR in DSS-induced colitis mice; type: in vivo, mouse; details: 126 and 252 mg/kg per day, relative to HPRT
Protocol: as §1
To evaluate the effect of treatment with Compound B on the levels of proinflammatory cytokines and biomarkers, total RNA was extracted from small and large intestinal tissue samples (>100 mg). cDNA was synthesized by reverse transcription and analyzed by real-time PCR. Results were normalized to the level of the housekeeping gene hypoxanthine guanine phosphoribosyltransferase (HPRT). The relative mRNA expression of the tested gene relative to HPRT expression was calculated using the 2^−ΔΔCt method as described in Pickert et al., J. Exp. Med., 2009, 206:1465-1472. Interleukin 6 (IL6), IL1b, calgranulin-A (S100A8), and tumor necrosis factor α (TNFα) have been implicated as mediators of IBD, including both ulcerative colitis and Crohn's disease. IL6, IL1b, and calgranulin-A are prominently expressed in inflammatory macrophages. IL22-dependent regenerating islet-derived 3 gamma (Reg3g) is induced in response to inflammation in epithelial cells. IL17 is secreted by Th17 T helper cells and innate lymphoid cells type 3 (ILC3).

atherogenic lipids = details: APOE*3.CETP mice; cited from earlier work
[3] = Excretion balance of radioactivity after single oral [14C]-Compound B; type: in vivo, rat; details: male albino rats, single oral [14C]-Compound B 50 mg/kg
Protocol: To assess Compound B clearance via urine versus feces, the excretion pattern of a single oral dose of [14C]-Compound B was determined in male albino rats. […] The total excretion of radioactivity following oral administration was >95% within the first 48 hours. Excretion via the urine accounted for 12% of the administered dose. […]

[4] = high dose, 252 mg/kg per day, 7 days 1.5% DSS

CC/C=C\C/C=C\C/C=C\C/C=C\C/C=C\CCCCSC(CC)(CC)C(=O)O [Compound B, 2-ethyl-2-((5Z,8Z,11 Z,14Z,17Z)-icosa-5,8,11,14,17-pentaenylthio)butanoic acid]
Difference in weight loss between control and treated group ([1]; 126 mg/kg per day (Compound B-Low) oral gavage, C56BL/6J mice): statistically significant after 7 days | Difference in weight loss between control and treated group ([1]; 252 mg/kg per day (Compound B-High) oral gavage, C56BL/6J mice): statistically significant after 6 days | Body weight loss compared to control ([1]; 126 and 252 mg/kg per day oral gavage, 7 days 1.5% DSS, C56BL/6J mice): dose-dependent reduction in weight loss | Histology of colon cross-sections in treated mice ([1]; 126 and 252 mg/kg per day, 7 days 1.5% DSS): dose-dependent attenuation of inflammatory infiltrates and edema | Colon length compared to control ([1]; both low (126 mg/kg) and high (252 mg/kg) doses per day, 7 days 1.5% DSS, C56BL/6J mice): significant increase in colon length | Survival rate 7 days after colitis was induced ([1]; high dose, 252 mg/kg per day oral gavage): 100% | Histological cross-sections of colon, morphology [1, 4]: almost complete rescue | Inflammation and epithelial and mucosal injury versus untreated mice [1, 4]: lower | Histological scores of colon versus untreated mice ([1]; high dose, 252 mg/kg per day, 7 days 1.5% DSS, H&E): significantly lower | Survival rate 7 days after colitis was induced ([1]; low dose, 126 mg/kg per day oral gavage): 90% | Expression of IL17a [2]: lack of change | mRNA levels of IL1b compared to untreated mice [2]: dose-dependent decrease | mRNA levels of IL6 compared to untreated mice [2]: dose-dependent decrease | mRNA levels of Reg3g compared to untreated mice [2]: dose-dependent decrease | mRNA levels of S100A8 compared to untreated mice [2]: dose-dependent decrease | mRNA levels of TNFα compared to untreated mice [2]: dose-dependent decrease | Effect on atherogenic lipids (atherogenic lipids): significantly reduce atherogenic lipids | Total excretion of radioactivity within the first 48 hours [3]: > 95% | % Recovery of Administered Dose (Mean), Cage debris (0-168 h) ([3]; n = 3): 0.038% | % Recovery of Administered Dose (Mean), Carcass (168 h) ([3]; n = 3): 1.14% | % Recovery of Administered Dose (Mean), Faeces (0-168 h) ([3]; n = 3): 86% and 85.8% | % Recovery of Administered Dose (Mean), Mean total radioactivity (0-168 h) ([3]; n = 3): 101% | % Recovery of Administered Dose (Mean), Urine (0-168 h) ([3]; n = 3): 12% and 12.4% | % Recovery of Administered Dose (Mean), Cage wash (0-168 h) ([3]; n = 3, includes final cage wash): 1.27%

— patent US20260000632A1, “STRUCTURALLY MODIFIED FATTY ACIDS FOR IMPROVING GLYCEMIC CONTROL AND TREATING INFLAMMATORY BOWEL DISEASE” (Northsea Therapeutics B.V., priority 2018, published 2026)
